Measured values: publication PMC8841438 (Clinical and Translational Science, 2021)
Where two headings read alike, the source gives them in different places.

Columns and labels:
[1] = tested on: organic anion transporting polypeptide 1B1; conditions: in vitro; cited from earlier work
MATE2K = MATE2K (Homo sapiens, UniProt Q86VL8); conditions: in vitro; cited from earlier work
bile salt export pump = conditions: in vitro; at clinically relevant concentrations; cited from earlier work
[2] = tested on: organic anion transporter 3; conditions: in vitro; at clinically relevant concentrations; cited from earlier work
[3] = cited from earlier work
[4] = tested on: organic anion transporting polypeptide 1B3; conditions: in vitro; cited from earlier work
[5] = tested on: organic anion transporter 1; conditions: in vitro; at clinically relevant concentrations; cited from earlier work
[6] = tested on: organic anion transporter 4; conditions: in vitro; at clinically relevant concentrations; cited from earlier work
[7] = no reference given; cited from earlier work
[8] = target: T1, organic cation transporter 2 (OCT2) (Homo sapiens, UniProt O15244); assay: In vitro transporter inhibition: OCT2; type: in vitro ADME; conditions: data on file at Gilead Sciences, Inc.
T1 sequence (O15244 1-555): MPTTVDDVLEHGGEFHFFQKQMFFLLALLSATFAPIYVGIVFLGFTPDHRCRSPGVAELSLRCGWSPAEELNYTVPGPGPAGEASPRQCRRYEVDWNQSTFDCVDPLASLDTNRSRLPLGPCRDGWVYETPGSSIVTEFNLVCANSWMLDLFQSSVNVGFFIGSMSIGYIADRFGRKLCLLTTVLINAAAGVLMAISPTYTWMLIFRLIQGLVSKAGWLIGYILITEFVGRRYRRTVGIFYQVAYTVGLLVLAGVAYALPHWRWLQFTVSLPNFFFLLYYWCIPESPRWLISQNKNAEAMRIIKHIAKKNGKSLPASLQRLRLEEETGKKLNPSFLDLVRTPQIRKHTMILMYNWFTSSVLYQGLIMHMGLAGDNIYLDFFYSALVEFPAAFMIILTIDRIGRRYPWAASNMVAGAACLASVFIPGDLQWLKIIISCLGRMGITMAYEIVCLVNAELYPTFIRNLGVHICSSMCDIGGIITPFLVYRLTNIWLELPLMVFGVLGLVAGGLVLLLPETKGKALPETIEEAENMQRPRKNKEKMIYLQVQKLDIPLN

[9] = target: T1, organic cation transporter 2 (OCT2); conditions: in vitro; cited from earlier work
P‐gp = conditions: in vitro; at clinically relevant concentrations; cited from earlier work
[10] = cited from earlier work; remark: listed apart in the source
[11] = tested on: carboxylesterase 2 (CES2); conditions: cited from earlier work
[12] = type: in vivo, human
[13] = type: in vivo, human; remark: listed apart in the source
cytochrome P450 enzymes = conditions: cited from earlier work
[14] = 200 mg and 100 mg once‐daily; patients with active rheumatoid arthritis; phase III; cited from earlier work
[15] = tested on: breast cancer resistance protein; conditions: in vitro; at clinically relevant concentrations; cited from earlier work
[16] = tested on: organic cation transporter 1; conditions: in vitro; at clinically relevant concentrations; cited from earlier work
MATE1 = target: T2, MATE1 (Homo sapiens, UniProt Q96FL8); assay: In vitro transporter inhibition: MATE1; type: in vitro ADME; conditions: data on file at Gilead Sciences, Inc.
T2 sequence (Q96FL8 1-570): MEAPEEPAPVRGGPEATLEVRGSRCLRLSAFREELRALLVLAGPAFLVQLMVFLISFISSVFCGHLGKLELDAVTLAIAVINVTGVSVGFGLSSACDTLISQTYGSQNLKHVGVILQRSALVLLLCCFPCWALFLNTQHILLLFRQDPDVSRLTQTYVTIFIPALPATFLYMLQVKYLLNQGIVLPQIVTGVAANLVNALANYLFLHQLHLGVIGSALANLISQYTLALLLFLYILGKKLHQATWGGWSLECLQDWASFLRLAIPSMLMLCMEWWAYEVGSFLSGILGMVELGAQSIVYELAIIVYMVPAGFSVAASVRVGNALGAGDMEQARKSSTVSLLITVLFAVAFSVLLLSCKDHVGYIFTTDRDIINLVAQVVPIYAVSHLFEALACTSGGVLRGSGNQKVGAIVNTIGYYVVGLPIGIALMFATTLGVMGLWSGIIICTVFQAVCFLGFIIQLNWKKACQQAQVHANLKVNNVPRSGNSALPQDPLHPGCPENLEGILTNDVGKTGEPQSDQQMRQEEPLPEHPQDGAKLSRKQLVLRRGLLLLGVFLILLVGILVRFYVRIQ

[17] = tested on: human colon carcinoma‐derived (Caco‐2) cells; conditions: no reference given; cited from earlier work
JAK1 = conditions: whole blood and cellular assays; cited from earlier work
[18] = patients with rheumatoid arthritis
[19] = study 2, filgotinib 200 mg after multiple doses of rifampin 600 mg vs alone
[20] = study 2, filgotinib + rifampin vs filgotinib alone
[21] = study 1, filgotinib 100 mg with itraconazole 200 mg vs alone
[22] = study 1, filgotinib + itraconazole vs filgotinib alone

MATE2K, sequence (Q86VL8 1-566 isoform Q86VL8-3): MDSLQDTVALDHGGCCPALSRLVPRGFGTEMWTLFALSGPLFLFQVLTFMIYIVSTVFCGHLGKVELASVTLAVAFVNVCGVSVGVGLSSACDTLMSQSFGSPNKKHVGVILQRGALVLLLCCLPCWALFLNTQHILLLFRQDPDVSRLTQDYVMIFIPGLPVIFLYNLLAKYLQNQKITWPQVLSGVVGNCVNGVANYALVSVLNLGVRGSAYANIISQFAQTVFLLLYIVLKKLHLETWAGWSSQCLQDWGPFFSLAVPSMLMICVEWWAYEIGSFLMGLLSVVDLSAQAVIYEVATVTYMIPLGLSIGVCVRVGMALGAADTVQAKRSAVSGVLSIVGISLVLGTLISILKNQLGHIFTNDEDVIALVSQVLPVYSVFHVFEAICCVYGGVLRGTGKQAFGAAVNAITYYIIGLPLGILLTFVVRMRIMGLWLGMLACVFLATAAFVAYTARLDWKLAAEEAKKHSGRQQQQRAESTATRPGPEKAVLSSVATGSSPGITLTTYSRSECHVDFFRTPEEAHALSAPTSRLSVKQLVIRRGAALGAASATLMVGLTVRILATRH

O=C(Nc1nc2cccc(-c3ccc(CN4CCS(=O)(=O)CC4)cc3)n2n1)C1CC1 [Filgotinib]
inhibition of OATP1B1 [1]: inhibited
inhibition of MATE2K (MATE2K): inhibited
inhibition of bile salt export pump (bile salt export pump): not inhibitors
inhibition of organic anion transporter 3 [2]: not inhibitors
administered dose eliminated in the urine as filgotinib and its metabolites [3]: Approximately 87%
dose eliminated in the feces [3]: about 15%
orally administered dose recovered in feces as the named species ([3]; filgotinib: unchanged): ~5%
orally administered dose recovered in urine as the named species ([3]; filgotinib: unchanged): ~ 9%
inhibition of OATP1B3 [4]: inhibited
inhibition of organic anion transporter 1 [5]: not inhibitors
inhibition of organic anion transporter 4 [6]: not inhibitors
permeability (BCS) [7]: high permeability
solubility (BCS) [7]: low solubility
inhibition of OCT2 (in words) ([8]; in vitro data): may inhibit
ratio of maximum unbound plasma concentration over in vitro IC50 against OCT2 [8, 18]: 0.26
inhibition of OCT2 [9]: inhibited
inhibition of P‐gp (P‐gp): not inhibitors
accumulation following multiple doses [10]: no accumulation
time to steady‐state concentrations [10]: ~ 2 days
linearity of pharmacokinetics ([10]; from 50 to 200 mg, dose proportional and time‐independent): linear
metabolism by CES2 to form GS‐829845 (in words) [11]: primarily metabolized
Tmax ([12]; human, plasma, oral): 1.5 h
half-life ([12]; human, plasma, oral): 7.7 h
AUC(0-inf) ([12]; human, plasma, oral, 200 mg): 6960 ng·h/mL
AUC(0-t) ([12]; human, plasma, oral, 200 mg): 6980 ng·h/mL
Cmax ([12]; human, plasma, oral, 200 mg): 2190 ng/mL
Tmax ([12]; human, plasma, oral, 200 mg): 1 h
half-life ([12]; human, plasma, oral, 200 mg): 8.4 h
reduction in AUCinf by rifampin [12, 19]: 27%
reduction in C max by rifampin [12, 19]: 26%
AUCinf %GLSM ratio (90% CI) [12, 20]: 72.7 (69.1, 76.5) %
AUClast %GLSM ratio (90% CI) [12, 20]: 72.7 (69.1, 76.5) %
effect of rifampin on T max and t 1/2 (in words) ([12]; study 2, filgotinib: T max and t 1/2, GS‐829845: Tmax): similar
CL/F ([12]; study 2, single filgotinib 200 mg alone, mean (%CV), N = 14): 30.1 (21.0) L/h
Tmax ([13]; human, plasma, oral): 1 h
half-life ([13]; human, plasma, oral): 6.26 h
AUC(0-inf) ([13]; human, plasma, oral, 100 mg): 2190 ng·h/mL
AUC(0-t) ([13]; human, plasma, oral, 100 mg): 2170 ng·h/mL
Cmax ([13]; human, plasma, oral, 100 mg): 756 ng/mL
Tmax ([13]; human, plasma, oral, 100 mg): 1 h
half-life ([13]; human, plasma, oral, 100 mg): 7.4 h
increase in AUCinf by itraconazole [13, 21]: 45%
increase in C max by itraconazole [13, 21]: 64%
AUCinf %GLSM ratio (90% CI) [13, 22]: 145 (133, 157) %
AUClast %GLSM ratio (90% CI) [13, 22]: 145 (133, 158) %
C max %GLSM ratio (90% CI) [13, 22]: 164 (129, 208) %
effect of itraconazole on pharmacokinetic parameters (in words) ([13]; study 1, filgotinib: Tmax, t1/2, GS‐829845: C max, AUCinf, T max, t 1/2): did not affect
CL/F ([13]; study 1, single filgotinib 100 mg alone, fasting, mean (%CV), N = 13): 48.6 (25.0) L/h
drug‐drug interactions (DDIs) liability with cytochrome P450 enzymes (cytochrome P450 enzymes; in vitro and in vivo data): relatively low
substrate of the cytochrome P450 enzymes (cytochrome P450 enzymes; in vitro data, no reference given): not a substrate
signs and symptoms and physical function [14]: significantly improved
inhibition of breast cancer resistance protein [15]: not inhibitors
inhibition of organic cation transporter 1 [16]: not inhibitors
inhibition of MATE1 (in words) (MATE1; in vitro data): may inhibit
ratio of maximum unbound plasma concentration over in vitro IC50 against MATE1 (MATE1; [18]): 0.26
efflux in Caco‐2 cells [17]: active efflux
potency on JAK1 over JAK2, JAK3, tyrosine kinase 2, and other kinases (JAK1): greater than five‐fold higher potency
